Test results taken from patent US10793601B2, “Therapeutic spalt-like transcription factor 4 (SALL4) peptide” (National University of Singapore, priority 2016, dated 2020).
Ends that are not written are not given here.

Key:
SNU398 cells = experiment: Cell viability assay in SNU398 cells; format: cell-based; conditions: ratio of EC50, SNU398
Experimental: FIGS. 3A-3E. Key residues involved in SALL4 (1-12)-RBBp4 binding. […] The difference in the binding free energy (ΔΔGbind) of the alanine mutants (ΔGmutant, Ala7 was mutated to glycine) and wild type (ΔGwild type) was calculated (ΔΔGbind=ΔGmutant−ΔGwild type). ΔΔGbind was tabulated (left) and plotted in a bar chart (right). […] Mutated residues are highlighted in red. The IC50 of each peptide, including WT, was determined by Fluorescence Polarization (FP). Different concentrations of each peptide were titrated into a mixture of 0.04 μM RBBp4 and 0.01 μM of C-labelled FITC-SALL4 WT peptide. Polarization was measured in mP. […] Pep-1 carrier was added to the peptide to facilitate cellular penetration of the peptides.
FIGS. 5A-5B. Development of a potent therapeutic peptide FFW.
SNU398 was grown in RPMI supplemented with 10% fetal bovine serum (FBS) at 37° C. in a humidified atmosphere of 5% CO2. 3000 cells were seeded in each well of a 96 well plate with 100 μL of medium. Before peptide treatment, cells were washed twice with PBS and treated with different concentrations of peptide in OPTIMEM (LifeTech). Media was added after 4 hrs of incubation at 37° C., and cells incubated for another 68 hrs. Tetrazolium (CellTiter96 AQueous One Solution Cell Proliferation Assay, Promega) was added after 72 hrs incubation with the peptides, and the plate was read at a plate reader at 490 nm after 1 hr of incubation in the dark at 37° C.

in vitro = conditions: human, plasma, pH 7.4
Experimental: PEN-FFW was incubated with human plasma (pH7.4) at 37° C. over a 24 hour period (5 timepoints). Incubations were performed at a concentration of 1 μM (final DMSO concentration 2.5%). Reactions were terminated at 0, 5, 10, 15, 30 min, or 0, 1, 2, 4 and 24 hour, by addition of 2 volumes of methanol containing 1% Formic acid. The samples were centrifuged (2500 rpm, 45 min, 4° C.) and the supernatants diluted with 2 volumes of 0.2% Formic acid (aq) (containing Metoprolol (internal standard)). […] The percentage of parent peptide remaining at each time point relative to the 0 min sample was calculated from LC-MS/MS peak area ratios (compound peak area/internal standard peak area).

PTEN = PTEN mRNA in resected SNU398 tumors by real-time PCR; format: in vivo, NOD/SCID/gamma mice; conditions: harvested SNU398 tumors
Experimental: FIGS. 7A-7E. Anti-tumor activity of the candidate therapeutic peptide FFW. FIG. 7A: 7.2×10^5 SNU398 cells were inoculated subcutaneously into the right flank of NOD/SCID/gamma mice (NSG mice). Tumors were allowed to grow for one week before peptide treatments were administered every alternate day for a total of five injections. FIG. 7B: Tumor growth was documented by plotting tumor volume against time. […] FIG. 7C: Relative size of tumors resected on day 20. FIG. 7D: tumor weight was determined (n=5). PEN-FFW treated mice had the smallest tumors (μ=88.34 mg) compared to PEN (μ=1550.78 mg), PEN-MUT (μ=1273.46 mg) and PEN-WT (μ=563.46 mg). FIG. 7E: Total RNA was isolated from the resected tumors and expression of PTEN was measured using real-time PCR.
Tumors resected from mice were homogenized in Trizol. Total RNA was extracted and treated with RNase-free DNase (Qiagen). Reverse transcription was carried out using Superscript III Reverse Transcriptase. Quantitative PCR was performed using GoTaq qPCR Master Mix (Promega). Amplification was done with a Corbett Rotor Gene 6000 (Qiagen). Each sample was assayed in triplicate.

SNU398 = experiment: RNA-seq transcriptome analysis of treated SNU398; format: cell-based; conditions: SNU398 treated 8 hrs
Experimental: SNU398 were treated PEN, PEN-MUT, PEN-WT & PEN-FFW for 8 hrs and paired-end RNA-seq was performed for the treated samples. RNA-seq reads of each sample were mapped to hg19 using the STAR aligner. Normalization between the samples was based on the proportionality of the numbers of the mapped reads. The expression fold change of a transcript was obtained using linear regression of the reads between the two samples cross all exons. Differential expression between two samples was selected by using the fold change cut off of 2. Hierarchical clustering was performed based on average linkage to generate the clustering tree as well as heat maps. For identification of enriched gene sets or pathways, Gene Set Enrichment Analysis (GSEA) was performed based on the normalized data and using the GSEA tool (broad.mit.edu/gsea/) with msigdb.v5.0.

[1] = Toxicity study, repeated IP administration; conditions: 30 mg/kg IP every alternate day, 17 days, cumulative 270 mg/kg
Experimental: (§1) Mice were exposed to intraperitoneal (IP) administration of PEN-FFW (30 mg/kg) or vehicle (10% DMSO) every alternate day over the course of 17 days to a cumulative dose of 270 mg/kg.
(§2) Toxicity of PEN-FFW was studied in vivo in C57BL/6 mice (n=4). Theses mice were exposed to intraperitoneal (IP) administration of PEN-FFW (30 mg/kg) or vehicle (10% DMSO) every alternate day over the course of 17 days to a cumulative dose of 270 mg/kg. […] After a 7-day washout period, complete blood counts and liver function assay tests were performed, and organs were harvested for histology. Potential liver injury caused by the peptide treatment was studied by testing serum AST (Aspartate Aminotransferase) and ALT (Alanine Aminotransferase) levels.
(§3) 6-8-week old female C57BL mice were given PEN-FFW (30 mg/kg) (n=3) or DMSO control (n=2) every alternate day, for a total of 17 day, to a cumulative dose of 270 mg/kg. The mice were observed and weighted throughout the period. A 7 days wash out period were given before the mice were sacrificed with their blood and organs collected. Blood count were perform immediately with Celltact MEK6450 (Nihon Kohden, Japan), and serum were subjected for ALT and AST assay on the same day. ALT and AST were performed according to the manufacturer's protocol (Sigma-Aldrich, Merck, Germany). The organs were fixed with neutral buffered Formalin and embedded in paraffin. […]

PLC8024 tumor xenografts = experiment: PLC8024 xenograft (Sorafenib-resistant HCC); format: in vivo, mice
Experimental: FIGS. 9A-9E. Clinical significance of PEN-FFW compared to Sorafenib. FIG. 9A: PEN-FFW treated SNU398 tumor xenografts were compared to that of Sorafenib treated xenografts. FIG. 9B: PEN-FFW treated PLC8024 tumor xenografts were compared to that of Sorafenib treated xenografts. Mice body weight was measured to access toxicity of various peptides. FIG. 9C: Body weight of mice at day 17. FIG. 9D: Differences of body weight compared to day 0 (As indicated by the arrow in far left of FIG. 7A). FIG. 9E: Body weight of mice at day 19th in the experiment shown in FIG. 9A comparing effect of Sorafenib and PEN-FFW. Data represent mean±s.d. (n=5).
Clinical significance of PEN-FFW was studied in vivo by benchmarking against current therapy using Sorafenib. PEN-FFW treated SNU398 tumor xenografts were compared to that of Sorafenib treated xenografts (FIG. 9A). […] Potential therapeutic effect of PEN-FFW in HCC patients that are refractory to Sorafenib treatment was studied also studied in vivo. using a HCC cell line, PLC8024 which is SALL4 positive, CD133+ and is both chemo- and radio-resistant (Li et al., BMC Cancer 2016, 16, 15; Ma et al., Oncogene 2008, 27: 1749-1758), for the xenograft study.

[2] = mouse, in vivo
Experimental: as §1, §2, §3

RQIKIWFQNRRMKWKKRRKFAKFQWI [PEN-FFW]
improvement as compared with PEN-WT (SNU398 cells): 4 fold
remaining at 0.5 h, 1 μM (in vitro): > 90%
remaining at 4 h, 1 μM (in vitro): > 50%
remaining at 24 h, 1 μM (in vitro): ~20%
increase in PTEN expression in tumors compared to PEN control mice (PTEN): 9 fold
share of DEGs upregulated (SNU398): more than 99%
signs of toxicity (weight loss, lethargy, loss of mobility) [1]: did not exhibit notable signs of toxicity
tumor inhibitory effect (PLC8024 tumor xenografts): minimal tumor inhibitory effect
tissue damage by microscopic examination of major organs [2]: No tissue damage was observed
